For six compounds, IC50 results are on record in patent US12544374B2, “AZA-quinoline compounds and uses thereof” (Novartis AG, priority 2019, dated 2026).

The target in assay [1] is wild type PRC2 (wtPRC2) complex (Homo sapiens (Human), UniProt Q15910). Nature of the assay: EZH2 LC-MS assay (LC-Qualified). It counts as biochemical. The note with it: (a) LC-Qualified assay.
A further assay addresses EZH2 (Homo sapiens (Human), UniProt Q15910). As to the kind of experiment: ELISA (H3K27 methylation) assay in G401 cell. It counts as cell-based. The settings on record: (b) ELISA Qualified assay, 48 h. The essentials:
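G401 cells were exposed for 48 h to 3-fold serial dilutions (8 or 12 points, top 20 μM final). Lysates were analysed by ELISA, with the H3K27 methylation signal normalized to total H3. Percent inhibition versus vehicle was fit to a dose-response curve for IC50.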
For orientation: In an ELISA, binding on a coated surface is turned into a signal by an enzyme label.

In assay [2] the test system is B cell lymphoma cell KARPAS422. As to the kind of experiment: Analysis of cell proliferation, KARPAS422. It counts as cell-based, human. The settings on record: Homo sapiens, KARPAS-422, 336 h; KARPAS422 after 14 days of treatment; read-out: antiproliferative activities IC50. On the procedure: B cell lymphoma cell KARPAS422 was cultured using standard cell culture conditions in RPMI-1640 (Invitrogen, cat #11875) supplemented with 15% FBS (Invitrogen, cat #10099-141) in humidified incubator at 37° C., 5% CO2. To assess the effect of PRC2 inhibition on cell proliferation, exponentially growing cells were seeded at a density of 1×10^5 cells/mL in 12-well plate (Corning, cat #CLS3513). After cell seeding, a compound of the invention was added to the cell media (in concentrations ranging from 0 to 100 μM, 3× dilution series). Viable cell numbers were determined every 3-4 days for up to 14 days using Vi-CELL (Beckman Coulter). On days of cell counting, fresh growth media and compound were replenished and cells split back to a density of 1×10^5 cells/mL. Total cell number is expressed as split-adjusted viable cells per mL. The dose response curves and IC50 values were generated using Prism.

Each structure is given as a SMILES string.

wild type PRC2 (wtPRC2) complex, sequence (Q15910 whole entry): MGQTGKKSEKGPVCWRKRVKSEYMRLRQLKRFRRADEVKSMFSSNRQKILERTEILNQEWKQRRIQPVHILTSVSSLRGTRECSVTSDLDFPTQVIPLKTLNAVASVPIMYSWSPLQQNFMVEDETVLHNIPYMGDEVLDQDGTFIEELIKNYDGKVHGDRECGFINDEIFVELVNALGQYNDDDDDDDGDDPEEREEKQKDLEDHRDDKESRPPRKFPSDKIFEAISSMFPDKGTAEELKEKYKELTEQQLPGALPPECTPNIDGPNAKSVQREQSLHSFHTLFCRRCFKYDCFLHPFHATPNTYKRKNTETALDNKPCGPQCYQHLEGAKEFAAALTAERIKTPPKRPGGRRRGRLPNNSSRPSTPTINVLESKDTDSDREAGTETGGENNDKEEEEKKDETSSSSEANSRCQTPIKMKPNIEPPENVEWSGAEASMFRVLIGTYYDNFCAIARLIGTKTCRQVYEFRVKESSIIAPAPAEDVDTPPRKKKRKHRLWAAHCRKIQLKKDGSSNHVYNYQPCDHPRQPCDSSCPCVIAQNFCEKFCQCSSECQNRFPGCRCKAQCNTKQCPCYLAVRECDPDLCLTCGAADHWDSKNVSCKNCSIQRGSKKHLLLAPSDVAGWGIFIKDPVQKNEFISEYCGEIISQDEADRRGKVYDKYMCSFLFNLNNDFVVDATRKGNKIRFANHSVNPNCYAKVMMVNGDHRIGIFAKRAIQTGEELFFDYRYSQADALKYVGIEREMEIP
wild type PRC2 (wtPRC2) complex, sequence (Q15022 whole entry partner): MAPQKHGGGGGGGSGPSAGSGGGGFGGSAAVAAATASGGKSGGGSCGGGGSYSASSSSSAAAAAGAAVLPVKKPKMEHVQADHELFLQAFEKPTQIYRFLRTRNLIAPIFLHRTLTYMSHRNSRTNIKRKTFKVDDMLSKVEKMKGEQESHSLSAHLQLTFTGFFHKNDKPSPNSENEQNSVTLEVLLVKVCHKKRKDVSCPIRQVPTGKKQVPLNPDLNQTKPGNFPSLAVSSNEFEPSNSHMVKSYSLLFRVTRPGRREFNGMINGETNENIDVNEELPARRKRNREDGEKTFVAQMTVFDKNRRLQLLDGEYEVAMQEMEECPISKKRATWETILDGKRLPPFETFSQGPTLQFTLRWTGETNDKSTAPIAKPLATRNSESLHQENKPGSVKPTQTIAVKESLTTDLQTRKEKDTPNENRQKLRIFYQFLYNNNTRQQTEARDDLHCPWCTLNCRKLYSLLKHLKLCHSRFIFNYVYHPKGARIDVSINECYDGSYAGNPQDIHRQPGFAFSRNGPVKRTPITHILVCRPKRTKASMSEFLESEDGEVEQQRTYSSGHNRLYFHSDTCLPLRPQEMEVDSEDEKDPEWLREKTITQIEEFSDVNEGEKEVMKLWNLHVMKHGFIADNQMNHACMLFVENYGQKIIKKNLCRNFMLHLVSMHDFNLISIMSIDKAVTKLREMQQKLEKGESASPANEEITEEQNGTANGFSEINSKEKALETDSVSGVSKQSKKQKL
wild type PRC2 (wtPRC2) complex, sequence (O75530 whole entry partner): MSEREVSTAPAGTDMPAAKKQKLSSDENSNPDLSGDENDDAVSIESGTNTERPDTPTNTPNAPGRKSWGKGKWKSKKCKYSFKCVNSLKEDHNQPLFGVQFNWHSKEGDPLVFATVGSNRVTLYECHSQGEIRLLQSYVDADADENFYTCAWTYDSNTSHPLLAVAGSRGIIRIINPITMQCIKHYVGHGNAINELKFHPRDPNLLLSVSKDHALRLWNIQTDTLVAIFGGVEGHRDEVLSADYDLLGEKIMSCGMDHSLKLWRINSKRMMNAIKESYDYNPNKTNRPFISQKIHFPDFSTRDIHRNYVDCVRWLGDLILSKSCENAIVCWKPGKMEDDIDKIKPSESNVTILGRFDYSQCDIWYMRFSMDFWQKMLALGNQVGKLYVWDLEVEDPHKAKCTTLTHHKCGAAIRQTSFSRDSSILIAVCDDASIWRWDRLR
wild type PRC2 (wtPRC2) complex, sequence (Q09028 whole entry partner): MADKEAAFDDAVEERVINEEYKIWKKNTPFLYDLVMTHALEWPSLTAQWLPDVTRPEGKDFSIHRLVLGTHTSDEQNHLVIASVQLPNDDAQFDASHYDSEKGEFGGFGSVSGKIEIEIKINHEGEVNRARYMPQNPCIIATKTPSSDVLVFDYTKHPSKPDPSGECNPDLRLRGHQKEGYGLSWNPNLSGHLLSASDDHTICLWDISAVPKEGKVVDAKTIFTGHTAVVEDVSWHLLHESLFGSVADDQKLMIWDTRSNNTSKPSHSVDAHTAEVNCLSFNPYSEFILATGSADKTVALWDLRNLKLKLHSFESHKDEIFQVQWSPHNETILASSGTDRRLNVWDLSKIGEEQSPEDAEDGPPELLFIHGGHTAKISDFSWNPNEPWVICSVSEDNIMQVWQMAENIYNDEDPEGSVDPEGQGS
wild type PRC2 (wtPRC2) complex, sequence (Q6ZN18 whole entry partner): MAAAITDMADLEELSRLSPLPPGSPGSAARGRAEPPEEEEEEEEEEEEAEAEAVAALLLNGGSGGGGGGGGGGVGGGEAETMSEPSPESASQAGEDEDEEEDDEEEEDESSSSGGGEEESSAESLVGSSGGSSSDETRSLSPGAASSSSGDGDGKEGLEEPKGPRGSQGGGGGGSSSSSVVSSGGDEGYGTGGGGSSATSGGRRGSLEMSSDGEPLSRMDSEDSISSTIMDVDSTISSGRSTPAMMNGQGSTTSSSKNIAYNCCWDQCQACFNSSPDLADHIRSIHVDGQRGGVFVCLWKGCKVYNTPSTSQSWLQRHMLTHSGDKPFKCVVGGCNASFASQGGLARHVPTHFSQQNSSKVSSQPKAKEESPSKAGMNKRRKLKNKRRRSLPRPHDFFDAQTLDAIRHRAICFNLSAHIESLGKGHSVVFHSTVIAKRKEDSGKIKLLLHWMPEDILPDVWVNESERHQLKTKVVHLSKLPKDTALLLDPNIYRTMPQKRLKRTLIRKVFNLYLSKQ
EZH2, sequence (Q15910 whole entry): as the sequence (Q15910 whole entry) above
EZH2, sequence (Q15022 whole entry partner): as the sequence (Q15022 whole entry partner) above
EZH2, sequence (O75530 whole entry partner): as the sequence (O75530 whole entry partner) above
EZH2, sequence (Q09028 whole entry partner): as the sequence (Q09028 whole entry partner) above

As for `O=C(Cc1cnc(NC[C@H]2CC[C@H](Nc3ccc4ccnc(Cl)c4n3)CC2)nc1)N(CCO)C1COC1` [Compound C51, 2-(2-((((1,4-trans)-4-((8-chloro-1,7-naphthyridin-2-yl)amino)cyclohexyl)methyl)amino)pyrimidin-5-yl)-N-(2-hydroxyethyl)-N-(oxetan-3-yl)acetamide], the IC50 in assay [1] worked out at 0.038 µM; against EZH2, 0.018 µM; in assay [2], 8 nM.
On the same counts, the results for `Clc1nccc2ccc(N[C@H]3CC[C@H](CNc4ncc(CNC5COC5)cn4)CC3)nc12` [Compound C27, 8-chloro-N-((1,4-trans)-4-(((5-((oxetan-3-ylamino)methyl)pyrimidin-2-yl)amino)methyl)cyclohexyl)-1,7-naphthyridin-2-amine] are 0.027 µM, 0.019 µM and 8 nM.
On the same counts, the results for `COc1nccc2ccc(N[C@H]3CC[C@H](CNc4ncc(NC(C)=O)cn4)CC3)nc12` [Compound C6, N-(2-((((1,4-trans)-4-((8-methoxy-1,7-naphthyridin-2-yl)amino)cyclohexyl)methyl)amino)pyrimidin-5-yl)acetamide] are 0.101 µM, 0.066 µM and 69 nM.
On to `CNc1nccc2ccc(N[C@H]3CC[C@H](CNc4ncc(C(N)=O)cn4)CC3)nc12` [Compound C61, 2-((((1,4-trans)-4-((8-(methylamino)-1,7-naphthyridin-2-yl)amino)cyclohexyl)methyl)amino)pyrimidine-5-carboxamide], for which the IC50 in assay [1] was 0.049 µM; against EZH2, 0.032 µM; in assay [2], 41 nM.
On the same counts, the results for `COC(=O)Nc1cnc(NC[C@H]2CC[C@H](Nc3ccc4ccnc(Cl)c4n3)CC2)nc1` [Compound C15, Methyl (2-((((1,4-trans)-4-((8-chloro-1,7-naphthyridin-2-yl)amino)cyclohexyl)methyl)amino)pyrimidin-5-yl)carbamate] are 0.017 µM, 0.028 µM and 31 nM.
As for `O=C(NC1COC1)C(F)(F)c1cnc(NC[C@H]2CC[C@H](Nc3ccc4ccnc(Cl)c4n3)CC2)nc1` [Compound C77, 2-(2-((((1,4-trans)-4-((8-chloro-1,7-naphthyridin-2-yl)amino)cyclohexyl)methyl)amino)pyrimidin-5-yl)-2,2-difluoro-N-(oxetan-3-yl)acetamide], the concentration for half-maximal inhibition (IC50) turned out to be 0.012 µM in assay [1], 0.025 µM at EZH2 and 2 nM in assay [2].

A word on the IC50: it is the concentration at which inhibition is half-maximal.
